Reference: the supplement of paper PMC10883282
± gives the standard deviation of the averaged measurements.

Tests used:
Experiment in all cases: relative viability vs DMSO control (72 h) (fraction); higher = more viable cells
[1] = test system: KHOS-240S
Method in brief: (§1)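 Plates held 72 h at 37 °C and 5% CO2 contained sarcoma cell lines seeded in 384-well format to reach 80–90% confluence, plus 2.5 µl of serially diluted compound added after 24 h. Source plate concentrations ran from 10 mM to 0.0002 mM, with 0.1% DMSO as vehicle and a 5 µM positive control. Percent growth from ATPLite readings, averaged over up to triplicate wells, gave relative viability. Values were rescaled with 1 as full and 0 as none.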

[2] = test system: RD
Method in brief: as §1

[3] = test system: SW1353
Method in brief: as §1

[4] = test system: SYO-1
Method in brief: as §1

[5] = test system: MES-SA
Method in brief: as §1

C[C@@H]1CN(C(=O)c2ccc(NC(=O)c3cc(O[C@H](C)c4c(Cl)ccc(F)c4Cl)c(N)nn3)cc2)C[C@H](C)N1 [Ensartinib]
relative viability
Conditions	[1]	[2]	[3]	[4]	[5]
0.00017 µM	0.995 ± 0.041	1.01 ± 0.032	0.959 ± 0.049	1.02 ± 0.024	0.921 ± 0.064
0.00051 µM	1.02 ± 0.032	1.02 ± 0.053	0.938 ± 0.025	1.01 ± 0.036	0.896 ± 0.057
0.00152 µM	1.02 ± 0.052	1.06 ± 0.034	0.985 ± 0.013	1 ± 0.02	0.938 ± 0.029
0.00457 µM	1 ± 0.042	1.06 ± 0.065	0.956 ± 0.029	0.997 ± 0.015	0.929 ± 0.029
0.01372 µM	1.03 ± 0.023	1.028 ± 0.01	0.955 ± 0.049	1.02 ± 0.011	0.932 ± 0.025
0.04115 µM	1.02 ± 0.015	1.028 ± 0.0074	0.969 ± 0.024	0.981 ± 0.013	0.926 ± 0.048
0.1235 µM	1.01 ± 0.012	0.972 ± 0.033	0.957 ± 0.045	0.927 ± 0.052	0.961 ± 0.034
0.3704 µM	0.994 ± 0.033	0.9011 ± 0.0084	0.966 ± 0.026	0.91 ± 0.025	0.933 ± 0.035
1.111 µM	0.847 ± 0.034	0.683 ± 0.03	0.955 ± 0.017	0.6316 ± 0.0033	0.498 ± 0.016
3.333 µM	0.579 ± 0.021	0.561 ± 0.011	0.77 ± 0.012	0.175 ± 0.011	0.296 ± 0.0074
10 µM	0.135 ± 0.0057	0.0738 ± 0.0066	0.0145 ± 0.0019	-0.0432 ± 0.0066	0.1 ± 0.0096

CN(C)C/C=C/C(=O)Nc1cc2c(Nc3ccc(F)c(Cl)c3)ncnc2cc1O[C@H]1CCOC1 [Afatinib]
relative viability
Conditions	[1]	[2]	[3]	[4]	[5]
0.00017 µM	1.06 ± 0.052	1.08 ± 0.036	1.03 ± 0.038	1.03 ± 0.049	0.967 ± 0.036
0.00051 µM	1.06 ± 0.056	1.13 ± 0.097	1.01 ± 0.048	1.01 ± 0.016	0.955 ± 0.039
0.00152 µM	1.07 ± 0.068	1.15 ± 0.059	0.965 ± 0.012	0.979 ± 0.03	0.948 ± 0.037
0.00457 µM	1.08 ± 0.063	1.11 ± 0.074	0.923 ± 0.035	0.949 ± 0.036	0.947 ± 0.035
0.01372 µM	1.06 ± 0.036	1.11 ± 0.061	0.822 ± 0.039	0.957 ± 0.063	0.934 ± 0.041
0.04115 µM	1.04 ± 0.063	1.07 ± 0.1	0.771 ± 0.011	0.946 ± 0.022	0.887 ± 0.027
0.1235 µM	1.03 ± 0.064	1.09 ± 0.12	0.749 ± 0.03	0.903 ± 0.042	0.885 ± 0.038
0.3704 µM	0.991 ± 0.051	1.03 ± 0.086	0.653 ± 0.018	0.838 ± 0.022	0.725 ± 0.024
1.111 µM	0.715 ± 0.072	0.569 ± 0.061	0.485 ± 0.037	0.5276 ± 0.003	0.452 ± 0.018
3.333 µM	0.402 ± 0.039	0.0531 ± 0.046	0.3677 ± 0.0033	0.00877 ± 0.0057	0.283 ± 0.04
10 µM	0.0697 ± 0.068	0.022 ± 0.0053	0.22 ± 0.17	-0.00643 ± 0.0018	0.24 ± 0.099
